Measured values taken from patent US20240009212A1, “PHOSPHAPLATIN COMPOUNDS AS THERAPEUTIC AGENTS SELECTIVELY TARGETING HIGHLY GLYCOLYTIC TUMOR CELLS AND METHODS THEREOF” (Promontory Therapeutics Inc., priority 2020, published 2024).
Peptide text beside a SMILES is read from it. * marks the point of attachment. Cbz = O=C(OCc1ccccc1)*; CH2F = FC*

Experiments:
Assay type in all cases: cell-based, mouse
[1] = test system: L929dt and L929^dt cells; assay: ROS scavengers on PT-112-induced cell death; details: for effect on PT-112-induced cell death: ROS scavenger plus 10 μM PT-112 (GSH 5 mM, 72 h)
[2] = test system: L929dt and L929^dt cells; assay: Mitochondrial ROS production (MitoSOX), sensitive cells
Method: Total ROS production and mitochondrial membrane potential were simultaneously measured using a FACScalibur flow cytometer. Pretreated cells with PT-112 were incubated with DiOC6 at 20 nM (Molecular Probes, Madrid) and DHE at 2 μM (Molecular Probes, Madrid) for 30 min at 37° C. For specific mitochondrial ROS production, cells were incubated with MitoSOX™ (5 μM, ThermoFisher, Rockford, USA) for 30 minutes at 37° C.
In order to obtain more evidence about the mechanism of action of PT-112, its effect on ROS production was analyzed. First, a time-course determination of total ROS generation by detection of 2HE oxidation was performed by flow cytometry. […] To complete this study, specific mitochondrial ROS production upon PT-112 treatment using the MitoSOX™ reagent was determined.
However, this effect can be due to direct reactivity of the thiol group with Pt, inactivating the cytotoxic potential of PT-112, and not to the elimination of ROS generation. This hypothesis was confirmed by incubating PT-112 with GSH during 1 h in the absence of cells and adding this GSH-treated PT-112 to cells, showing no cytotoxicity (FIG. 6). […] Since PT-112-induced ROS generation seems to be concentrated in mitochondria, the mitochondria-specific ROS scavenger MitoTEMPO was used. Cells (3×10^4) were seeded in a 96-well plate in phenol red-free medium and were incubated with 100 μM of MitoTEMPO for 2 h. Then, 10 μM of PT-112 was added and incubated for 48 and 72 h at 37° C.

[3] = test system: glycolytic cells sensitive to PT-112-induced cell death; assay: Apoptosis and necroptosis inhibition of PT-112-induced cell death; details: 1 h pretreatment (Z-VAD-fmk 50 μM, necrostatin-1 30 μM), then 10 μM PT-112 for 48 h
Method: Cells (3×10^4) were seeded in a 96-well plate and incubated with a pan-caspase-inhibitor Z-VAD-fmk (50 μM, MedChem Express, New Jersey, USA) and/or RIPK-1 inhibitor necrostatin-1 (30 μM, MedChem Express, New Jersey, USA) for 1 h. After that, cells were treated with 10 μM of PT-112 and incubated for 48 h at 37° C. Both inhibitors were refreshed in their corresponding well after 24 h. Finally, cell death was assessed using flow cytometry after incubation with annexin-V-FITC and 7-AAD for 10 minutes. […] For this purpose, a FITC-labelled anti-caspase-3 antibody that detects cleaved, active caspase-3 by flow cytometry was used. Cells (3×10^4) were treated with 10 μM of PT-112 for 24-72 h. Then, cells were incubated with anti-cleaved caspase-3 labelled with FITC dye and analyzed by flow cytometry. […] The implications of caspase-3 activation in this process were investigated by tested the ability of the general pan-caspase inhibitor Z-VAD-fmk and/or the necroptosis inhibitor necrostatin-1 to prevent cell death induced by PT-112 (FIG. 4B). Cells were pretreated for 1 h with or without pan-caspase or/and necroptosis inhibitors and then, incubated with 10 μM of PT-112 for 48 h. Flow cytometry analysis was carried-out using annexin-V-FITC and 7-AAD staining. Cells were stained simultaneously with annexin-V-FITC and 7-AAD and the percentage of the different populations analyzed by flow cytometry. […]

[4] = test system: L929, L929dt and cybrids cells; assay: Cytotoxicity, annexin-V-FITC/7-AAD flow cytometry; details: 10 μM, 24, 48 or 72 h
Method: Cytotoxicity assays were carried-out as follows: 100 μl aliquots of 3×10^4 cells were seeded per well in 96-well plate and 10 μM of PT-112 or cisplatin was added and incubated for 24-72 h at 37° C. Cell death was analyzed using a FACScalibur flow cytometer (BD Biosciences) after incubation with Annexin-V-FITC and/or 7-AAD (BD Biosciences, Madrid) in annexin binding buffer (140 mM NaCl, 2.5 mM CaCl2), 10 mM HEPES/NaOH, pH 7.4) for 10 minutes.
To test cell death induction by PT-112 and cisplatin, the parental cells L929, L929dt and cybrids cells were incubated with 10 μM of PT-112 or cisplatin for 24, 48 or 72 h and, at the end of the incubations, simultaneously stained with annexin-V-FITC and 7-AAD and analyzed by flow cytometry. […] The results are shown as mean±SD of at least 2 independent experiments made in duplicate. […] On the contrary, in cells treated with PT-112, this population is not observed at any time point in sensitive L929dt and L929^dt cells, and a population double positive for both markers is at short times of exposure, increasing with time (FIG. 2B, bar sections colored in white). Finally, at longer times, a population positive for 7-AAD and negative for annexin-V staining appears for both cell lines, typical of necrotic cell death (FIG. 2B, sections colored in grey).

[5] = test system: L929 and dt^L929 cells; assay: MTT relative cell growth, OXPHOS-competent cells; details: 72 h, higher doses
Method: (§1) Cell Culture and Generation of Cybrids Mouse fibroblast cell lines L929 and L929-derived (L929dt) were routinely cultured in high glucose DMEM medium with GlutaMAX (Life Technologies, Paisley, UK) supplemented with 10% of fetal calf serum (FCS), penicillin (1000 U/ml) and streptomycin (10 mg/ml) (PanBiotech, Aidenbach, Germany) at 37° C. and 5% CO2 using standard procedures. The transmitochondrial cell lines L929^dt and dt^L929 were obtained as previously described (Schmidt, W., et al. (1993) 53:799-805) and cultured with the identical medium used with the parental cells. For L929-ρ^0 cells, complete DMEM medium was also supplemented with 100 pyruvate (100 μg/ml) and uridine (50 μg/ml).
(§2) Relative cell growth was measured using the Mossman's method. 3×10^4 cells were seeded per well in a 96-well flat-bottomed plate and incubated with increasing concentrations of PT-112 or cisplatin (2, 6, and 10 μM) for 24-72 h at 37° C. […] During the incubation time, viable cells reduce MTT solution in insoluble purple formazan crystals, solubilized afterwards with isopropanol and 0.05 M HCl mixture and the absorbance was measured in a microplate reader (Dynatec, Pina de Ebro, Spain).
(§3) The sensitivity of L929, L929dt and cybrid cells to PT-112 was compared. […] The ability of both drugs to inhibit cell growth was assessed by the MTT reduction method. […]

[6] = test system: L929dt and L929^dt cybrid cells; assay: MTT relative cell growth, glycolytic cells; details: 72 h, highest dose (10 μM)
Method: as §1, §2, §3

[7] = test system: L929-ρ^0 cells; assay: MTT relative cell growth, rho0 cells; details: 2, 6 and 10 μM, 24-72 h
Method: as §1
Relative cell growth was measured using the Mossman's method. 3×10^4 cells were seeded per well in a 96-well flat-bottomed plate and incubated with increasing concentrations of PT-112 or cisplatin (2, 6, and 10 μM) for 24-72 h at 37° C. Then, 10 μl of a 5 mg/ml MTT dye solution was added per well and incubated for 3 hours. During the incubation time, viable cells reduce MTT solution in insoluble purple formazan crystals, solubilized afterwards with isopropanol and 0.05 M HCl mixture and the absorbance was measured in a microplate reader (Dynatec, Pina de Ebro, Spain). […]

Compound: CC1(C)CC(NC(=O)C[P+](c2ccccc2)(c2ccccc2)c2ccccc2)CC(C)(C)N1[O] [MitoTEMPO]
- protection from PT-112-induced L929dt cell death ([1]; 100 μM MitoTEMPO, 10 μM PT-112, statistically significant after 72 h): partial protection
- inhibition of mitochondrial superoxide generation induced by PT-112 ([2]; 100 μM MitoTEMPO 2 h, then 10 μM PT-112, L929dt cells): only partially
- inhibition of mitochondrial superoxide generation induced by antimycin A ([2]; 100 μM MitoTEMPO, L929dt cells): almost completely abolish

Compound: O=C(O)c1ccc(/C2=C3\C=CC(=N3)/C(c3ccc(C(=O)O)cc3)=c3/cc/c4[n]3[Mn]([Cl])[n]3c2ccc3/C(c2ccc(C(=O)O)cc2)=C2/C=CC(=N2)\C=4c2ccc(C(=O)O)cc2)cc1 [MnTBAP]
- effect on PT-112-induced cell death [1]: neither of them were able to prevent

Compound: CC1(C)CCCC(C)(C)N1[O] [TEMPO]
- effect on PT-112-induced cell death [1]: neither of them were able to prevent

Compound: COC(=O)C[C@H](NC(=O)[C@H](C)NC(=O)[C@@H](NC(=O)OCc1ccccc1)C(C)C)C(=O)CF [Z-VAD-fmk] (Cbz-Val-Ala-Asp(OMe)-CH2F)
- prevention of cell death induced by PT-112 [3]: did not inhibit cell death

Compound: N.N.[Cl][Pt][Cl] [cisplatin]
- cell death induction [4]: induces cell death in all cell lines
- growth inhibition [5]: 70%
- growth inhibition [6]: 95%
- cell growth [7]: inhibited the growth

Compound: N[C@@H](CCC(=O)N[C@@H](CS)C(=O)NCC(=O)O)C(=O)O [glutathione]
- effect on PT-112-induced cell death [1]: completely abolished

Compound: CN1C(=O)C(Cc2c[nH]c3ccccc23)NC1=S (centres unmarked) [necrostatin-1]
- prevention of cell death induced by PT-112 [3]: did not inhibit cell death

Compound: Cc1c(C)c2c(c(C)c1O)CC[C@@](C)(CCC[C@H](C)CCC[C@H](C)CCCC(C)C)O2 [α-tocopherol]
- effect on PT-112-induced cell death [1]: neither of them were able to prevent

Compound: antimycin A
- mitochondrial superoxide anion, MFI ([2]; L929dt cells, MitoSOX, FIG. 7): 128
